Assay results published in ChEMBL document CHEMBL5154926, “Discovery of a Novel Series of Imipridone Compounds as Homo sapiens Caseinolytic Protease P Agonists with Potent Antitumor Activities In Vitro and In Vivo” (J Med Chem, 2022).

Tests used:
[1] = tested on: MDA-MB-231; assay: Antiproliferative activity against human MDA-MB-231 cells incubated for 48 hrs by CCK-8 assay; type: functional, cell-based; conditions: MDA-MB-231, 48 h
[2] = tested on: A549; assay: Antiproliferative activity against human A549 cells incubated for 48 hrs by CCK-8 assay; type: functional, cell-based; conditions: A549, 48 h
[3] = Antiproliferative activity against human HEK293 cells incubated for 48 hrs by CCK-8 assay; type: toxicity, cell-based
[4] = tested on: Raji; assay: Antiproliferative activity against human Raji cells incubated for 48 hrs by CCK-8 assay; type: functional, cell-based
[5] = tested on: U-251; assay: Antiproliferative activity against human U-251 cells incubated for 48 hrs by CCK-8 assay; type: functional, cell-based; conditions: U-251, 48 h
[6] = Antiproliferative activity against rat H9c2 cells incubated for 48 hrs by CCK-8 assay; type: toxicity, cell-based
[7] = tested on: HCT-116; assay: Potency index, ratio of ONC201 IC50 to test compound IC50 for antiproliferative activity against human HCT-116 cells by CCK-8 assay; type: functional
[8] = tested on: HCT-116; assay: cells; conditions: Homo sapiens, HCT-116, 48 h
Description: Antiproliferative activity against human HCT-116 cells incubated for 48 hrs by CCK-8 assay

[9] = tested on: HT-29; assay: cells; conditions: Homo sapiens, HT-29, 48 h
Description: Antiproliferative activity against human HT-29 cells incubated for 48 hrs by CCK-8 assay

[10] = tested on: SW-620; assay: cells; conditions: Homo sapiens, SW-620, 48 h
Description: Antiproliferative activity against human SW-620 cells incubated for 48 hrs by CCK-8 assay

[11] = tested on: DLD-1; assay: cells; conditions: Homo sapiens, DLD-1, 48 h
Description: Antiproliferative activity against human DLD-1 cells incubated for 48 hrs by CCK-8 assay

[12] = tested on: HCT-15; assay: cells; conditions: Homo sapiens, HCT-15, 48 h
Description: Antiproliferative activity against human HCT-15 cells incubated for 48 hrs by CCK-8 assay

[13] = tested on: SW480; assay: cells; conditions: Homo sapiens, SW480, 48 h
Description: Antiproliferative activity against human SW480 cells incubated for 48 hrs by CCK-8 assay

`Cc1ccccc1CN1CCn2c1nc(=O)c1c2CCN(Cc2ccccc2)C1` gave an IC50 [1] of 10500 nM, an IC50 [2] of 2140 nM and an IC50 at 48 h [3] of over 50000 nM. It also gave an IC50 [4] of 1060 nM, an IC50 [5] of 2060 nM and an IC50 at 48 h [6] of over 50000 nM. For the same molecule, the “Ratio IC50” value [7] was 10, the IC50 [8] was 400 nM and the IC50 [9] was 5300 nM. For the same molecule, the IC50 [10] was 640 nM, the IC50 [11] was 520 nM and the IC50 [12] was 1280 nM. For the same molecule, the IC50 [13] was 1100 nM.
